The results in this text go back to PubChem BioAssay AID1845209 (Molecular Pharmacology Branch, DTP, NCI, 2023).

“And” between values parts separate entries of the source, which are not always exact repeats. Equal entries are not always repeated.

The assay deals with NCI-H211 tumor spheroids, viability percent test/control. The experiment in a line: Anticancer human tumor NCI-H211 cell line growth inhibition.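 On all read-outs here: spheroids exposed to agents for seven days before readout.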 The settings on record: spheroids with HUVEC and MSC; for viability, T/C: stronger effect = lower value. The gist of the method:
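Single agents and combinations were tested on spheroids built from tumor cells plus HUVEC and hMSC, at half-log dilutions starting at or near clinical Cmax, else 10 microM; final DMSO 0.25% (v/v).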

A word on the IC50: it is the concentration at which inhibition is half-maximal. A word on the viability, T/C: it is the ratio of treated to control. `CNCc1ccc(-c2cc(-c3nc(-c4ccc(S(=O)(=O)C(C)C)cc4)cnc3N)on2)cc1` + CC[C@@]1(O)C(=O)OCc2c1cc1n(c2=O)Cc2cc3c(CN(C)C)c(O)ccc3nc2-1: the IC50 reads like this: (curve of first compound, second compound 0.003 µM) 9.61 nM; (curve of first compound, second compound 0.00949 µM) less than 9.49 nM; (curve of first compound, second compound 0.03 µM) less than 9.49 nM; (curve of first compound, second compound 0.0949 µM) less than 9.49 nM; (curve of first compound, second compound 0.3 µM) less than 9.49 nM. Further, the viability, T/C (second compound 0.003 µM, first compound 0.00949 µM) is 50.5%; the viability, T/C (second compound 0.003 µM, first compound 0.03 µM) is 9.5%; the viability, T/C (second compound 0.003 µM, first compound 0.0949 µM) is 0.85%; the viability, T/C (second compound 0.003 µM, first compound 0.3 µM) is 0.92%; the viability, T/C (second compound 0.003 µM, first compound 0.949 µM) is 0.05%; the viability, T/C (second compound 0.003 µM, first compound 3 µM) was 0.11%. Also, the viability, T/C is 3.19% (second compound 0.00949 µM, first compound 0.00949 µM); 1.35% (second compound 0.00949 µM, first compound 0.03 µM); 1.06% (second compound 0.00949 µM, first compound 0.0949 µM); 1.09% (second compound 0.00949 µM, first compound 0.3 µM); 0.11% (second compound 0.00949 µM, first compound 0.949 µM); 0.11% (second compound 0.00949 µM, first compound 3 µM). For the same molecule, the viability, T/C reads like this: (second compound 0.03 µM, first compound 0.00949 µM) 0.96%; (second compound 0.03 µM, first compound 0.03 µM) 0.98%; (second compound 0.03 µM, first compound 0.0949 µM) 0.97%; (second compound 0.03 µM, first compound 0.3 µM) 1.07%; (second compound 0.03 µM, first compound 0.949 µM) 0.14%; (second compound 0.03 µM, first compound 3 µM) 0.11%. Also, the viability, T/C was 1.04% (second compound 0.0949 µM, first compound 0.00949 µM); 1.29% (second compound 0.0949 µM, first compound 0.03 µM); 1.06% (second compound 0.0949 µM, first compound 0.0949 µM); 0.67% (second compound 0.0949 µM, first compound 0.3 µM); 0.12% (second compound 0.0949 µM, first compound 0.949 µM); 0.13% (second compound 0.0949 µM, first compound 3 µM). Besides, the viability, T/C was 0.95% (second compound 0.3 µM, first compound 0.00949 µM); 1.15% (second compound 0.3 µM, first compound 0.03 µM); 1.37% (second compound 0.3 µM, first compound 0.0949 µM); 0.82% (second compound 0.3 µM, first compound 0.3 µM); 0.21% (second compound 0.3 µM, first compound 0.949 µM); 0.18% (second compound 0.3 µM, first compound 3 µM).
Consider `CNCc1ccc(-c2cc(-c3nc(-c4ccc(S(=O)(=O)C(C)C)cc4)cnc3N)on2)cc1` + Cn1nnc2c(C(N)=O)ncn2c1=O, for which the IC50 reads like this: (curve of first compound, second compound 1 µM) 11.5 nM; (curve of first compound, second compound 3.16 µM) 19.7 nM; (curve of first compound, second compound 10 µM) 16.8 nM; (curve of first compound, second compound 31.6 µM) less than 9.49 nM; (curve of first compound, second compound 100 µM) less than 9.49 nM. In addition, the viability, T/C is 53% (second compound 1 µM, first compound 0.00949 µM); 35.3% (second compound 1 µM, first compound 0.03 µM); 6.53% (second compound 1 µM, first compound 0.0949 µM); 1.07% (second compound 1 µM, first compound 0.3 µM); 0.07% (second compound 1 µM, first compound 0.949 µM); 0.11% (second compound 1 µM, first compound 3 µM). In addition, the viability, T/C (second compound 3.16 µM, first compound 0.00949 µM) is 71%; the viability, T/C (second compound 3.16 µM, first compound 0.03 µM) was 37.9%; the viability, T/C (second compound 3.16 µM, first compound 0.0949 µM) is 7.5%; the viability, T/C (second compound 3.16 µM, first compound 0.3 µM) was 0.64%; the viability, T/C (second compound 3.16 µM, first compound 0.949 µM) is 0.13%; the viability, T/C (second compound 3.16 µM, first compound 3 µM) was 0.1%. The viability, T/C (second compound 10 µM, first compound 0.00949 µM) is 66.9%; the viability, T/C (second compound 10 µM, first compound 0.03 µM) is 32.9%; the viability, T/C (second compound 10 µM, first compound 0.0949 µM) is 6.3%; the viability, T/C (second compound 10 µM, first compound 0.3 µM) was 0.72%; the viability, T/C (second compound 10 µM, first compound 0.949 µM) is 0.13%; the viability, T/C (second compound 10 µM, first compound 3 µM) was 0.13%. The viability, T/C was 34% (second compound 31.6 µM, first compound 0.00949 µM); 9.23% (second compound 31.6 µM, first compound 0.03 µM); 2.14% (second compound 31.6 µM, first compound 0.0949 µM); 1.16% (second compound 31.6 µM, first compound 0.3 µM); 0.14% (second compound 31.6 µM, first compound 0.949 µM); 0.14% (second compound 31.6 µM, first compound 3 µM). Also, the viability, T/C runs as follows: (second compound 100 µM, first compound 0.00949 µM) 11%; (second compound 100 µM, first compound 0.03 µM) 2.34%; (second compound 100 µM, first compound 0.0949 µM) 1.63%; (second compound 100 µM, first compound 0.3 µM) 1.21%; (second compound 100 µM, first compound 0.949 µM) 0.17%; (second compound 100 µM, first compound 3 µM) 0.23%.
Consider `CC[C@@]1(O)C(=O)OCc2c1cc1n(c2=O)Cc2cc3c(CN(C)C)c(O)ccc3nc2-1`, for which the viability, T/C by setting is: (compound 0.00949 µM) 12.2% [middle of 10 runs]; (compound 0.03 µM) 1.13% [middle of 10 runs]; (compound 0.0949 µM) 1.05% [middle of 10 runs]; (compound 0.3 µM) 1.08% [middle of 10 runs]. In addition, the IC50 runs as follows: (compound alone, run of 11/07/2019) 4.84 nM [middle of 4 runs]; (compound alone, run of 12/16/2019) 6.27 nM [middle of 5 runs].
Turning to `O=C(c1cc(Cc2n[nH]c(=O)c3ccccc23)ccc1F)N1CCN(C(=O)C2CC2)CC1`, the viability, T/C by setting is: (compound 0.0949 µM) 36% and 73% and 92.9%; (compound 0.3 µM) 30.1% and 42.2% and 63.5%; (compound 0.949 µM) 14.9% and 5.83% and 9.79%; (compound 3 µM) 9.02% and 1.22% and 0.8%; (compound 9.49 µM) 8.37% and 1.02% and 0.69%; (compound 30 µM) 7.89% and 0.93% and 0.73%. For the setting “curve of compound”, the IC50 was < 94.9 nM and 224 nM and 401 nM.
In the case of `Cc1sc2c(c1C)C(c1ccc(Cl)cc1)=NC(CC(=O)Nc1ccc(O)cc1)c1nnc(C)n1-2` (stereo not given), the viability, T/C reads like this: (compound 0.00949 µM) 22.6% and 55.5% and 64.2%; (compound 0.03 µM) 3.79% and 7.14% and 8.47%; (compound 0.0949 µM) 1.01% and 1.07% and 0.73%; (compound 0.3 µM) 0.87% and 0.68% and 0.48%; (compound 0.949 µM) 0.92% and 0.62% and 0.4%; (compound 3 µM) 0.83% and 0.65% and 0.43%. Moreover, the IC50 (curve of compound) was < 9.49 nM and 10.8 nM and 12.7 nM.
